According to patent publication US9974761B2, “Medications for deposition on biological surfaces” (The Procter & Gamble Company, priority 2014, dated 2018):

Columns and labels:
human TRPM8 [1] = experiment: TRPM8 Protocol-FLIPR Assay (intracellular Ca2+); assay type: cell-based; details: dose 30 uM
Procedure: (§1) To determine whether TRPM8 is activated, the intracellular calcium ion (Ca^2+) level was measured from transfected cells with the TRPM8 receptor sequence (SEQ ID NO: 3). HEK-293 (human embryonic kidney) cells stably transfected with human TRPM8 were grown in 15 ml growth medium (high glucose DMEM (Dulbecco's Modification of Eagle's Medium) supplemented with 10% FBS (fetal bovine serum), 100 ug/ml penicillin/streptomycin, 5 μg/ml blasticindin, and 100 μg/ml zeocin) in a 75 cm^2 flask for 3 days at 37° C. in a mammalian cell culture incubator set at 5% CO2 Cells were detached with addition of 2 ml of trypsin-EDTA buffer (GIBCO® 25200, Invitrogen, Grand Island, N.Y.) for about 2-3 min. Trypsin was inactivated by addition of 8 ml growth medium. Cells were transferred to a 50 ml tube and centrifuged at 850 rpm for 3 minutes to remove medium. After centrifugation, a pellet of cells was formed in the bottom of the tube separating them from the supernatant solution. The supernatant was discarded and the cell pellet was suspended in 1 ml of fresh growth medium to which 5 μl (12.5 μg) of Fluo-4 AM (Molecular Probes, Inc., Eugene, Oreg.) calcium indicator was added and incubated for 30 min with gentle shaking. Fluo-4 AM is a fluorescent dye used for quantifying cellular Ca^2+ concentrations in the 100 nM to 1 microM range. At the end of 30 minutes, 45 ml of assay buffer (1× HBSS (Hank's Balanced Salt Solution), 20 mM HEPES (4-(2-Hydroxyethyl)-1-piperazineethanesulfonic acid)) was added to wash cells and the resulting mixture was then centrifuged at 850 rpm for 3 minutes to remove excess buffer and Fluo-4 AM calcium indicator.
(§2) The pelleted cells were re-suspended in 10 ml assay buffer and 90 μl aliquots (˜50,000 cells) per well delivered to a 96-well assay plate containing 10 μl of test compounds (1 mM in assay buffer, […]) or buffer control and incubated at room temperature for 30 minutes. After 30 minutes, a plate was placed into a fluorometric imaging plate reader (FLIPR384 from Molecular Devices, Sunnyvale, Calif.) and basal fluorescence recorded (excitation wave length 488 nm and emission wave length 510 nm). Then 20 μl of […] of TRPM8 agonist WS5 coolant in the assay buffer was added and fluorescence recorded. For determining the direct effect of test compounds on TRPM8, fluorescence was measured immediately after addition of each compound (TABLES 2 and 3). Additional discussion of the FLIPR method can be found in Smart et al., Characterization using FLIPR of human vanilloid VR1 receptor pharmacology, European Journal of Pharmacology 417, 51-58 (2001) and Liu et al., Development and validation of a platelet calcium flux assay using a fluorescent imaging plate reader, Analytical Biochemistry 357, 216-224 (2006).
(§3) TRPM8 activation was determined by measuring intracellular calcium ion (Ca^2+) level from transfected cells with the TRPM8 receptor gene, as described in EXAMPLE 1, the results of which are shown in TABLES 4 and 5.

human TRPM8 [2] = target: T1, human TRPM8 (UniProt Q8R4D5); experiment: TRPM8 Protocol-FLIPR Assay (intracellular Ca2+); assay type: cell-based
T1 construct: Receptor Activity TRPM8; Receptor Activity TRPM8; other: test compound at 0.001%; relative to WS5 control (30 microMolar); HEK 293 cells; other: test compound at 0.004%; other: test compound at 5.2E−5%; relative to WS5 control
Procedure: as §1, §2, §3

human TRPA1 = target: T2, human TRPA1 (Homo sapiens, UniProt O75762, K186N/R3C/R58T); experiment: TRPA1 Protocol-FLIPR Assay (intracellular Ca2+); assay type: cell-based
T2 construct: expressed in transfected cells
Procedure: To determine whether TRPA1 is activated, the intracellular calcium ion (Ca^2+) level from transfected cells with the TRPA1 receptor sequence (SEQ ID NO: 2) was measured. HEK-293 cells stably transfected with human TRPA1 were grown in 15 ml growth medium (high glucose DMEM (Dulbecco's Modification of Eagle's Medium) supplemented with 10% FBS (fetal bovine serum), 100 μg/ml penicillin/streptomycin, 100 μg/ml G418) in a 75cm^2 flask for 3 days at 37° C. in a mammalian cell culture incubator set at 5% CO2. Cells were detached with addition of 10 ml of PBS (phosphate buffered saline) by hand shaking gently and transferred to a 50 ml tube and centrifuged at 850 rpm for 3 minutes to remove PBS. After centrifugation, a pellet of cells was formed in the bottom of the tube separating them from the supernatant solution. The supernatant was discarded and the cell pellet suspended in 1 ml of fresh growth medium to which 5 μl (12.5 μg) of Fluo-4 AM (Molecular Probes, Inc.) calcium indicator was added and incubated for 30 minutes with gentle shaking. At the end of the 30 minutes, 45 ml of assay buffer (1× HBSS (Hank's Balanced Salt Solution), 20 mM HEPES (4-(2-Hydroxyethyl)-1-piperazineethanesulfonic acid)) was added to wash the cells and the resulting combination was then centrifuged at 850 rpm for 3 minutes to remove excess buffer and Fluo-4 AM calcium indicator.
The pelleted cells were re-suspended in 10 ml assay buffer and 90 μll aliquots (˜50,000 cells) per well delivered to a 96-well assay was placed into a fluorometric imaging plate reader (FLIPR TETRA from Molecular Devices) and basal fluorescence recorded (excitation wave length 488 nm and emission wave length 510 nm). Then 20 μl of the test compound being tested was added and fluorescence recorded (TABLES 2 and 3).
To determine if a compound was an agonist the direct effect of a test compound was determined. If any increase in fluorescence over background was noted, then the compound was considered an agonist. The agonist activity was expressed relative to that observed with a benchmark agonist such as 50 μm allyl isothiocyanate for TRPAL

[3] = Sensation reported by panelists; assay type: in vivo; details: perceived sensation, in words
human TRPV1 = target: T3, human TRPV1 (Homo sapiens, UniProt Q8NER1, M315I/T336M); experiment: TRPV1 Protocol-FLIPR Assay (intracellular Ca2+); assay type: cell-based
T3 construct: expressed in transfected cells
Procedure: To determine whether TRPV1 was activated, the intracellular calcium ion (Ca^+2) levels from cells transfected with the TRPV1 receptor sequence (SEQ ID NO: 1) were measured. […] Cells were detached with addition of 10 ml of PBS (phosphate buffered saline) by gentle hand shaking. Cells were transferred to a 50 ml tube and centrifuged at 850 rpm for 3 minutes to remove PBS. After centrifugation, a pellet of cells formed in the bottom of the tube separating them from the supernatant solution. The supernatant was discarded and the cell pellet suspended in 1 ml of fresh growth medium to which 5 μl (12.5 μg) of Fluo-4 AM (Molecular Probes, Inc., Eugene, Oreg.) calcium indicator was added and incubated for 30 minutes with gentle shaking. […] The pelleted cells were re-suspended in 10 ml assay buffer and 90 μl aliquots (˜50,000 cells) per well delivered to a 96-well assay plate was placed into a fluorometric imaging plate reader (FLIPR TETRA from Molecular Devices) and basal fluorescence recorded (excitation wave length 488 nm and emission wave length 510 nm). Then 20 μl of a test compound-being tested as a TRPV1 receptor agonist was added and fluorescence recorded. The observed value with compound pretreated cells was compared with buffer control; the difference between the two indicating a measure of effect of the test compound on the agonist (TABLES 2 and 3). If any increase in fluorescence over background was noted, then the compound was considered an agonist.

[4] = concentration where the cooling effect could be clearly recognized; Emberger and Hopp 1987; cited from earlier work
[5] = test compound at 0.02%, relative to Allyl Isothiocyanate control (50 microMolar), HEK 293 cells
[6] = test compound at 0.02%, relative to Capsaicin control (350 nanoMolar), HEK 293 cells
[7] = test compound at 5.2E−5%, relative to Allyl Isothiocyanate control (50 microMolar), HEK 293 cells
[8] = test compound at 5.2E−5%, relative to Capsaicin control (350 nanoMolar), HEK 293 cells

T2 sequence (O75762 whole entry R3C/R58T/K186N): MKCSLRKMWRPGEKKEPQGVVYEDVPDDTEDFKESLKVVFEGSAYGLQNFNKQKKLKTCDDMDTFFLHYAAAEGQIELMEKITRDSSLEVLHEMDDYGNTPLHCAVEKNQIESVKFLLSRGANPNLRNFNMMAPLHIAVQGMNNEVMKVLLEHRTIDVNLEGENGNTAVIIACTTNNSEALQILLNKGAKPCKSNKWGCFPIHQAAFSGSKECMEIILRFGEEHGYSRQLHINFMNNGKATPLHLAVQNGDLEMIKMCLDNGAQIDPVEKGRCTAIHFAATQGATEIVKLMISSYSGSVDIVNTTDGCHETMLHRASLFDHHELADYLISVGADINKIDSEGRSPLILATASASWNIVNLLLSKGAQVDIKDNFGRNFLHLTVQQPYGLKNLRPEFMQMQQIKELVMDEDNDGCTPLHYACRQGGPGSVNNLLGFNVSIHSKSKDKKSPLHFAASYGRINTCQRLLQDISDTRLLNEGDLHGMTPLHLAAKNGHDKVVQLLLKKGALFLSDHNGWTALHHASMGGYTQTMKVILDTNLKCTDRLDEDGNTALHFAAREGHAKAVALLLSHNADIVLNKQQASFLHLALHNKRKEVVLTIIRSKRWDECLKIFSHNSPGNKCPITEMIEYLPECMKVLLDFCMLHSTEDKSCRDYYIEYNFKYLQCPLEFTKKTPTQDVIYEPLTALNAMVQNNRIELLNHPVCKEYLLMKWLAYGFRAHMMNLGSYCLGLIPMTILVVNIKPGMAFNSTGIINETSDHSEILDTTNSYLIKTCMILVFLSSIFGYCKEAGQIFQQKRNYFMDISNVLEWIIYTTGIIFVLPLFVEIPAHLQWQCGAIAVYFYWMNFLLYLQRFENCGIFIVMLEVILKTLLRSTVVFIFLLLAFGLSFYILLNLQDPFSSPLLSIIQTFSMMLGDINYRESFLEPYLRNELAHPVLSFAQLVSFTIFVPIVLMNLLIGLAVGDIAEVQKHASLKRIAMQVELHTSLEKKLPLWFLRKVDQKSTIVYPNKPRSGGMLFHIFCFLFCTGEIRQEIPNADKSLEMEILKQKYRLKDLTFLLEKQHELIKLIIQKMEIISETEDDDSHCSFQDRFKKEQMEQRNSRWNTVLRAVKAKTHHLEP
T3 sequence (Q8NER1 whole entry M315I/T336M): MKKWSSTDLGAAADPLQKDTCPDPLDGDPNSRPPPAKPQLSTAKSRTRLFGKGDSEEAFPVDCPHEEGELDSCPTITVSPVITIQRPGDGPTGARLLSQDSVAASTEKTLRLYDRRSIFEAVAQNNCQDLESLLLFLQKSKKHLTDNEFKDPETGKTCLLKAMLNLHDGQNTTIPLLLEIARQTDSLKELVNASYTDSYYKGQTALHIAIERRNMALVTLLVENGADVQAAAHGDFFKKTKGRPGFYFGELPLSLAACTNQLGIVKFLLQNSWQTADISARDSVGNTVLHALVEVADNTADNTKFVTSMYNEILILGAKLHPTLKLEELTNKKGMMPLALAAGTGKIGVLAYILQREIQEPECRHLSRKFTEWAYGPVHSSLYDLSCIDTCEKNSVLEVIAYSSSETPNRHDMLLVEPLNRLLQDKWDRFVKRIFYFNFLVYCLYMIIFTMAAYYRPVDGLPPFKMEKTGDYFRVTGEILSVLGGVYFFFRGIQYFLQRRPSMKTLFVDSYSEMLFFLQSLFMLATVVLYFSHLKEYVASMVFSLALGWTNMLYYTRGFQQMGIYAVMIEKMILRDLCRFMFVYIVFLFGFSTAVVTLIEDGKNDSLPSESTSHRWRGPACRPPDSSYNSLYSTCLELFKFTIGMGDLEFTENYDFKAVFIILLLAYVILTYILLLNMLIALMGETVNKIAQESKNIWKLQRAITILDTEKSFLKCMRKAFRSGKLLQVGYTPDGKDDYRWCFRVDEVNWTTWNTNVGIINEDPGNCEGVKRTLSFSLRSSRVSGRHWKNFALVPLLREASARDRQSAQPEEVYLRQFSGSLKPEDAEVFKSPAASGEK

CCOC(=O)CNC(=O)C1CC(C)CCC1C(C)C (stereo not shown) [WS5, N-ethoxycarbonylmethyl-ρ-menthan-3-carboxamide, reference compound]
TRPM8 Time Course Activity 50 sec % of WS5 (human TRPM8 [1]; 50 sec): 100.0% | TRPM8 Time Course Activity 3 min % of WS5 (human TRPM8 [1]; 3 min): 100.0% | TRPM8 Time Course Activity 5 min % of WS5 (human TRPM8 [1]; 5 min): 100.0% | TRPM8 Time Course Activity 10 min % of WS5 (human TRPM8 [1]; 10 min): 100.0% | TRPM8 Time Course Activity 50 sec (human TRPM8 [1]; fluorescence at 50 sec): 10059.7 | TRPM8 Time Course Activity 3 min (human TRPM8 [1]; fluorescence at 3 min): 9449.3 | TRPM8 Time Course Activity 5 min (human TRPM8 [1]; fluorescence at 5 min): 9468.0 | TRPM8 Time Course Activity 10 min (human TRPM8 [1]; fluorescence at 10 min): 9576.0 | Receptor Activity TRPM8 (human TRPM8 [2]; control agonist at 30 microMolar (reference = 100%)): 100% | TRPM8 Time Course Activity 50 sec % of WS5 (human TRPM8 [2]; dose 30 uM, 50 sec): 100.0% | TRPM8 Time Course Activity 50 sec (human TRPM8 [2]; dose 30 uM, fluorescence at 50 sec): 10059.7

CC(C)[C@@H]1CC[C@@H](C)C[C@H]1C(=O)Nc1ccc2ccccc2c1OCCN [Compound 777, Cyclohexane-carboxamide, N-[1-(2-aminoethoxy)-2-naphthalenyl]-5-methyl-2-(1-methylethyl)-, (1R,2S,5R)-*]
Receptor Activity TRPA1 (human TRPA1; [5]): 173.88% | sensation (cooling, warming, burning) [3]: burning | sensation (cooling, warming, burning) ([3]; listed as test compound 777): burning sensation | Receptor Activity TRPV1 (human TRPV1; [6]): 60.5%

CC(C)[C@@H]1CC[C@@H](C)C[C@H]1C(=O)NCC(OCCN)c1ccccc1 (stereo partly drawn) [Compound 30, Cyclohexane-carboxamide, N-[2-(2-aminoethoxy)-2-phenylethyl]-5-methyl-2-(1-methylethyl)-, (1R,2S,5R)-*]
Receptor Activity TRPA1 (human TRPA1; [7]): 38.18% | Receptor Activity TRPM8 (human TRPM8 [2]; test compound at 5.2E−5%, relative to WS5 control (30 microMolar), HEK 293 cells): 109.70% | sensation (cooling, warming, burning) [3]: lack of sensation, cooling or warming | Receptor Activity TRPV1 (human TRPV1; [8]): 16.24%

CC(C)[C@@H]1CC[C@@H](C)C[C@H]1C(=O)Nc1ccc(CC#N)cc1 [Compound 180, Cyclohexane-carboxamide, N-[4-(cyanomethyl)phenyl]-5-methyl-2-(1-methylethyl)-, (1R,2S,5R)-, reference compound]
Receptor Activity TRPA1 (human TRPA1; test compound at 0.001%, relative to Allyl Isothiocyanate control (50 microMolar), HEK 293 cells): 68.02% | Receptor Activity TRPM8 (human TRPM8 [2]; test compound at 0.001%, relative to WS5 control (30 microMolar), HEK 293 cells): 108.80% | Receptor Activity TRPM8 (human TRPM8 [2]; test compound at 0.001%, relative to WS5 control (30 microMolar), HEK 293 cells, listed as N-(4-cyanomethylphenyl)-p-menthanecarboxamide): 109% | Receptor Activity TRPV1 (human TRPV1; test compound at 0.001%, relative to Capsaicin control (350 nanoMolar), HEK 293 cells): 0.01%

CC(C)[C@@H]1CC[C@@H](C)C[C@H]1C(=O)NCC(NC(=O)[C@@H](C)N)c1ccccc1 (stereo partly drawn) [Compound 28, Cyclohexane-carboxamide, N-[2-[[(2R)-2-amino-1-oxopropyl]amino]-2-phenylethyl]-5-methyl-2-(1-methylethyl)-, (1R,2S,5R)-*]
Receptor Activity TRPA1 (human TRPA1; [7]): 242.50% | mass efficiency relative to N-(4-cyanomethylphenyl)-p-menthanecarboxamide (human TRPM8 [2]; at a single concentration, TRPM8 activity vs WS5): 100 × | Receptor Activity TRPM8 (human TRPM8 [2]; test compound at 5.2E−6%, relative to WS5 control (30 microMolar), HEK 293 cells): 130.42% | Receptor Activity TRPM8 (human TRPM8 [2]; test compound at 5.2E−6%, relative to WS5 control (30 microMolar), HEK 293 cells, listed as compound 28): 130% | sensation (cooling, warming, burning) [3]: cooling sensations | Receptor Activity TRPV1 (human TRPV1; [8]): 104.50%

CSc1ccc(NC(=O)[C@@H]2C[C@H](C)CC[C@H]2C(C)C)c(NCCN)c1 [Compound 773, Cyclohexane-carboxamide N-[2-[(2-aminoethyl)amino]-4-(methylthio)phenyl]-5-methyl-2-(1-methylethyl)-(1R,2S,5R)-*]
Receptor Activity TRPA1 (human TRPA1; [5]): 198.79% | sensation (cooling, warming, burning) [3]: warming | Receptor Activity TRPV1 (human TRPV1; [6]): 92.07%

CC(C)[C@@H]1CC[C@@H](C)C[C@@H]1O [d-neomenthol]
cooling threshold [4]: about 25,000 ppb

C=CCN=C=S [Allyl Isothiocyanate, reference compound]
Receptor Activity TRPA1 (human TRPA1; control agonist at 50 microMolar (reference = 100%)): 100%

CC(C)[C@@H]1CC[C@@H](C)C[C@@H]1O [Compound 1-neomenthol, 1-neomenthol]
cooling threshold [4]: about 3,000 ppb

CC(C)[C@@H]1CC[C@@H](C)C[C@H]1O [L-menthol]
cooling threshold [4]: about 800 ppb

COc1cc(CNC(=O)CCCC/C=C/C(C)C)ccc1O [Capsaicin, reference compound]
Receptor Activity TRPV1 (human TRPV1; control agonist at 350 nanoMolar (reference = 100%)): 100%
